Assay results published in patent US4546107A, “1,4-Methano-2-benzazepine derivatives useful as cerebal dysfunction-improving drugs, anti-convulsant, anti-epileptic or anti-anxiety drugs” (priority 1982, dated 1985).

Experiments:
[1] = test system: picrotoxin; experiment: Anti-picrotoxin action (picrotoxin-induced lethality in mice); assay type: in vivo, male dd mice; conditions: for ED50: Mus musculus, po, 0.5 h, read-out: Anti-picrotoxin-lethal action, ED50
Protocol: 1. Anti-picrotoxin Action
Groups each of 7-14 male dd mice were used. A test compound was orally administered and 60 minutes thereafter, picrotoxin (5 mg/kg) was administered subcutaneously. The 50% anti-lethal dose (ED50) was calculated from the servival rate within 30 minutes.

[2] = test system: bicuculline; experiment: Anti-bicuculline action (bicuculline-induced tonic-extensile convulsions in mice); assay type: in vivo, male dd mice; conditions: for ED50: Mus musculus, po, 5 min, read-out: Anti-bicuculline-convulsive action, ED50
Protocol: 2. Anti-bicuculline Action
Groups each of 4-14 male dd mice were used. Each test compound was administered orally and 60 minutes thereafter, bicuculline (0.6 mg/kg) was administered intravenously. The dose (ED50) required for 50% suppression of the occurrence of tonic-extensile convulsions within 5 minutes against the control group was determined.

Row | SMILES | ED50 [1] [mg/kg] | ED50 [2] [mg/kg] | Anti-picrotoxin-lethal action, percent in parentheses ([1]; printed beside ED50 >100 mg/kg, p.o., mice, picrotoxin 5 mg/kg s.c.) [%] | Anti-bicuculline-convulsive action, percent in parentheses ([2]; printed beside ED50 >100 mg/kg, p.o., mice, bicuculline 0.6 mg/kg i.v.) [%]
1 | O=C1NC2CC1Cc1ccc(Cl)cc12 (stereo not drawn) [A, 8-chloro-1,4-methano-2,3,4,5-tetrahydro-1H-2-benzazepin-3-one] | 62 | 95 | – | –
2 | CN1C(=O)C2Cc3ccc(Cl)cc3C1C2 (stereo not drawn) [B, 8-chloro-2-methyl-1,4-methano-2,3,4,5-tetrahydro-1H-2-benzazepin-3-one] | 66 | 45 | – | –
3 | O=C1NC2CC1Cc1c(Cl)cc(Cl)cc12 (stereo not drawn) [C, 6,8-dichloro-1,4-methano-2,3,4,5-tetrahydro-1H-2-benzazepin-3-one] | 50 | 73 | – | –
4 | O=C1NC2CC1Cc1ccccc12 (stereo not drawn) [D, 1,4Methano-2,3,4,5-tetrahydro-1H--2benzazepin-3-one] | 1100 | > 1000 | – | –
5 | COc1ccc2c(c1)C1CC(C2)C(=O)N1C (stereo not drawn) [E, 8Methoxy-2-methyl-1,4-methano-2,3,4,5-tetrahydro-1H--2-benzazepin3-one] | > 100 | > 100 | 0 | 0
